≈ marks a conversion by molar mass, not a printed value. Like-named read-outs stand apart in the source and are kept apart here. Blank lines part the entries; values can stand above or below the compound they belong to.
Columns and labels:
ddY mice = conditions: cited from earlier work
[1] = Stability on human microsomes; assay type: in vitro ADME; design: dose or concentration left out as unconfirmed; conditions: pooled liver microsomes, pH 7.4, 37 °C, NADPH-generating system, read-out: Stability on human microsomes T1/2
Method: The metabolic stability of IP-DHA on human microsomes (microsomes S9, cryopreserved hepatocytes, recombinant CYP, and recombinant UGT) has been evaluated and expressed as percentage of IP-DHA remaining. IP-DHA was pre-incubated with pooled liver microsomes in phosphate buffer (pH 7.4) at 10 mM for 5 min in a 37 °C shaking water bath (IKA® RH basic KT/C). The reaction was initiated using the NADPH-generating system and incubated for 0, 15, 30, 45, and 60 min. The reaction was stopped by transferring the incubation mixture to acetonitrile/methanol (1:3 v/v ratio). Samples were then mixed and centrifuged at 3000 rpm (Sigma centrifuge 2K15) for 20 min to precipitate the protein, and supernatants were collected. IP-DHA concentration was determined using µHPLC-MS/MS analysis, as described in Section 2.2.3. The half-life (T1/2) was estimated from the slope of the initial linear range of the logarithmic curve of the compound remaining (%) vs. time, assuming first-order kinetics.

Caco-2 permeability = assay type: in vitro ADME; conditions: human, Caco-2, pH 6.5/7.4, 10 μM
Method: Caco-2 cells are human intestinal epithelial cells that are derived from a colorectal adenocarcinoma. Cells were seeded at 1 × 10^5 cells/cm^2 in 96-well Multiscreen^TM plates (Millipore). This assay was performed in either the apical-to-basolateral (A–B) or B–A direction. IP-DHA was prepared at 10 μM in HBSS-MES (pH 6.5) or HBSS-HEPES (pH 7.4), with a final DMSO concentration of 1%. The working solution was then centrifuged, and the supernatant was added to the donor side. The assay plate was incubated at 37 °C with gentle shaking for 60 min or 40 min for the A–B or B–A assays, respectively. Samples were aliquoted from the donor side at time zero and from the end point, and from the receiver side at the end point. Samples were analyzed via HPLC-MS/MS, as described in Section 2.2.3.
The apparent permeability coefficient (Papp) in cm/s of IP-DHA was calculated as follows: Papp=VR×CRend/Δt×1/A×CDmind−CRmind where VR is the volume of the receiver chamber. CR(end) is the concentration of IP-DHA in the receiver chamber at the end time point, Δt is the incubation time, A is the surface area of the cell monolayer, and CD(mid) is the calculated mid-point concentration of the test compound on the donor side, which is the mean value of the donor concentration at time 0 min and the donor concentration at the end time point. […]

[2] = Solubility of IP-DHA in PBS, SGF and ISF without enzymes; assay type: physicochemical; conditions: for solubility: thermodynamic from solid, n = 3
Method: Solubility was evaluated in PBS (pH 7.4), SGF, and ISF (Table 1) without enzymes (pepsin and pancreatin). An excess of IP-DHA was added for each medium type, followed by mixing using a vortex mixer (Vortex Génie 2) and equilibration at room temperature. Next, the mixtures were centrifuged at 3000 rpm (Sigma centrifuge 2K15) for 15 min. The supernatant from each sample was diluted with methanol. The concentration of IP-DHA in each sample was determined using the µHPLC/MS-MS analysis, as described in Section 2.2.3.

[3] = IP-DHA stability and solubility in gastric- and intestinal-simulated fluids; assay type: in vitro ADME; design: half-life: dose or concentration left out as unconfirmed
Method: The chemical stability of free IP-DHA and IP-DHA loaded in SNEDDS at 30 mg/mL was evaluated in a gastric and an intestinal environment (Table 1). A total of 150 µL of free IP-DHA (solubilized in MeOH) or SNEDDS-IP-DHA loaded at 30 mg/mL were placed in 20 mL of freshly prepared SGF or ISF under magnetic stirring at 150 rpm in a water bath at 37 °C. Samples were collected at 0, 30, 60, and 90 min for the stability analysis in SGF, or 0, 20, 40, 60, 80, 100, and 120 min for the stability analysis in ISF. A total of 500 µL of the medium was recovered and diluted with 500 µL of MeOH to stop the enzymatic degradation reaction. The samples were centrifuged (Sigma centrifuge 2K15) for 10 min at 15,000 rpm. The supernatant was removed and IP-DHA was quantified as described in Section 2.3.5.

[4] = Solubility of IP-DHA in SNEDDS excipients; assay type: physicochemical
ABCA4KO mice [5] = experiment: Acute light-induced retinal degeneration, electroretinography; assay type: in vivo; conditions: 100 mg/kg oral, 60 min before 20,000 Lux white light for 90 min, ERG 5 days later
Method: (§1) Mice between 8 and 16 weeks of age (both sexes), were weighed to adjust the quantity of administered compound for a dosage at 100, 50, or 17 mg/kg. Mice were orally fed with a 22-gauge needle containing SNEDDS or soybean oil as a control vehicle, IP-DHA solubilized in soybean oil (20 mg/mL), and SNEDDS-IP-DHA (30 mg/mL).
(§2) After the mice were dark-adapted (DA) for 24 h, their pupils were dilated with 0.5% tropicamide. The mice were force-fed in the dark 1 h before light exposure. Mice were exposed to constant light (two cool white fluorescent lamps, OSRAM of 26 watts, 1800 lm, a maximum photopic efficiency of ~470 nm, light intensity averaged to 24 mW/cm^2, corresponding to ≈20.000 Lux) for 1.50 h in a white plastic bucket with a fan. Mice were kept in the dark for 5 days before we performed the final retinal evaluations. Throughout the experiment, the ambient temperature was 22 °C, which was identical to that of the breeding box, to avoid an increase in body temperature, which could further damage the retina.
All electrophysiological examinations were conducted using the Visiosystem (SIEM, France). Animals were prepared and anesthetized, and electroretinogram recording (binocular full-field ERG) was performed with cotton electrodes, as previously described.

retinal cells = tested on: retinal cells; design: method as in PMID 27072643; conditions: in vitro; cited from earlier work
Log P of IP-DHA = assay type: physicochemical
[6] = tested on: ABCA4KO (−/−) mouse model; design: method as in PMID 32641711; conditions: intravenous route, cited from earlier work
ABCA4KO mice [7] = experiment: Acute light-induced retinal degeneration, histological analysis; assay type: in vivo; conditions: 100 mg/kg oral, acute white light; dark-adapted mice 2.2
Method: as §1, §2
All animals were killed via cervical dislocation. The eyes were rapidly enucleated and fixed in 4% paraformaldehyde for 24 h at 4 °C. Eyecups were embedded in paraffin and cut into 5 μm sagittal sections. […] The thickness of the inner nuclear layer (INL) and the outer nuclear layer (ONL) was measured and expressed in arbitrary units using ImageJ software. […]

[8] = design: method as in PMID 27151507; conditions: administered dose of 25 mg/kg; cited from earlier work
rats = conditions: 25 mg/kg/day oral with corn oil, 30 days, 1.5 h/day (1500 Lux); cited from earlier work

Structure (SMILES): CC1=C(/C=C/C(C)=C/C=C/C(C)=C/C=C/C=C(C)/C=C/C=C(C)/C=C/C2=C(C)C(=O)[C@@H](O)CC2(C)C)C(C)(C)C[C@H](O)C1=O [Astaxantin]
- Photoreceptor protection (ddY mice; dissolved in olive oil, 100 mg/kg oral, white light 3 h at 8000 Lux): partially preserve photoreceptors

- half-life [1]: 10 min
- Papp B→A at 40 min, 10 μM (Caco-2 permeability; 40 min): 0.7 ± 0.05 ×10⁻⁶ cm/s
- Papp A→B at 60 min, 10 μM (Caco-2 permeability; 60 min): 1 ± 0.14 ×10⁻⁶ cm/s
- solubility ([2]; PBS, pH 7.4, aqueous buffer, room temperature, read-out: Solubility in PBS, pH 7.4): 0.0115 ± 0.00153 mg/mL (≈ 0.0241 mM)
- BCS classification ([2]; from poor solubility and poor Caco-2 permeability): BCS Class IV
- solubility ([2]; pH 1.5, simulated gastric fluid, free IP-DHA, SGF without pepsin, read-out: Solubility in SGF): 0.00739 ± 0.00026 mg/mL (≈ 0.0154 mM)
- solubility ([2]; pH 7.4, fassgf or other biorelevant, free IP-DHA, ISF without pancreatin, read-out: Solubility in ISF): 0.0102 ± 0.00012 mg/mL (≈ 0.0213 mM)
- half-life ([3]; ISF with pancreatin and bile salts, pH 7.4, 37 °C, read-out: T1/2 of IP-DHA in intestinal environment (ISF)): 11 min
- Stability of IP-DHA in gastric medium (SGF) ([3]; SGF with pepsin, pH 1.5, 37 °C, up to 90 min): remained stable
- solubility ([4]; Labrasol, surfactant, read-out: Solubility of IP-DHA in Labrasol): 46 ± 2.15 mg/mL (≈ 96.1 mM)
- solubility ([4]; Phosal 53 MCT, oil or lipid, oil phase, read-out: Solubility of IP-DHA in Phosal 53 MCT): 25.5 ± 3.27 mg/mL (≈ 53.2 mM)
- solubility ([4]; Transcutol HP, organic solvent or mixture, co-surfactant, read-out: Solubility of IP-DHA in Transcutol HP): 45 ± 2.16 mg/mL (≈ 94.1 mM)
- logP (Log P of IP-DHA): > 5
Structure (SMILES): CC/C=C\C/C=C\C/C=C\C/C=C\C/C=C\C/C=C\CCC(=O)Oc1cc(O)cc(OC(C)C)c1 [IP-DHA, phloroglucinol-isopropyl-DHA]
- a-wave, % of photoreceptor activity remaining vs dark-adapted mice (ABCA4KO mice [5]): 42%
- b-wave, % of photoreceptor activity remaining vs dark-adapted mice (ABCA4KO mice [5]): 39%
- Toxicity on retinal cells (retinal cells): absence of the toxicity
- Protection of photoreceptors ([6]; IP-DHA associated with BSA at 30 mg/kg): 80–85%
- Effect on the retinoid visual cycle [6]: did not affect the retinoid visual cycle
- INL/ONL ratio of thickness (ABCA4KO mice [7]): 0.7

Structure (SMILES): CC(=O)N1CCN(c2ccc(N)c(-n3ccnc3)c2)CC1 [NSP-116]
- Photoreceptor protection (ddY mice; suspended in water with 0.5% CMC, 30 mg/kg oral 30 min before white light 8000 Lux for 3 h): effective in protecting photoreceptors
- Cmax in plasma [8]: 7000 ng/mL

Structure (SMILES): CC1=C[C@H](O)CC(C)(C)[C@H]1/C=C/C(C)=C/C=C/C(C)=C/C=C/C=C(C)/C=C/C=C(C)/C=C/C1=C(C)C[C@@H](O)CC1(C)C [lutein]
- Photoreceptor protection (rats): demonstrated its efficacy for protecting photoreceptors
